Experimental data as given in ChEMBL document CHEMBL1122977, “A new class of cardiotonic agents: structure-activity correlations for natural and synthetic analogues of the alkaloid A new class of A new class of cardiotonic agents: structure-activity correlations for natural and synthetic analogues of the alkaloid pumiliotoxin B …” (J Med Chem, 1985).

Legend:
Conditions in all cases: Cardiac atrium
Cavia porcellus [1] = species: Cavia porcellus; assay: Effect on rate of atrial contractions induced by PTX-B in guinea pig (control value); format: functional, organism-based
Cavia porcellus [2] = species: Cavia porcellus; assay: Effect on force of atrial contractions induced by PTX-B in guinea pig (control value); format: functional
Cavia porcellus [3] = species: Cavia porcellus; assay: Effect on force of atrial contractions induced by PTX-B in guinea pig; format: functional, organism-based
Cavia porcellus [4] = species: Cavia porcellus; assay: Effect on rate of atrial contractions induced by PTX-B in guinea pig; format: functional, organism-based

Row | Compound | IC50 (Cavia porcellus [1]) | IC50 (Cavia porcellus [2]) | IC50 (Cavia porcellus [3]) | IC50 (Cavia porcellus [4])
1 | COC(=O)C1=C(C)NC(C)=C(C(=O)OC)C1c1ccccc1[N+](=O)[O-] [NIFEDIPINE] | 0.6 µM | 0.4 µM | 6 µM | 12 µM
2 | COc1ccc(CCN(C)CCCC(C#N)(c2ccc(OC)c(OC)c2)C(C)C)cc1OC (stereo not drawn) [VERAPAMIL] | 0.7 µM | 0.8 µM | 10 µM | 16 µM
